# Test results from paper PMC12823633 (Cancer Chemotherapy and Pharmacology, 2026).
# Tests used:
# [1] = tested on: CYP3A4; details: human, plasma, oral, 2.5 mg
# [2] = Adverse events, DDI evaluation period; assay type: in vivo, human (patients with solid tumors)
# [3] = After Administration of TAS-115, DDI period (N=18)
# [4] = Before Administration of TAS-115 (N=18)
# [5] = Entire DDI Evaluation Period (N=18)
smiles,measurement,setting,value
"Cc1ncc2n1-c1ccc(Cl)cc1C(c1ccccc1F)=NC2 [Midazolam, midazolam, reference compound]",AUC(0-inf),[1],56.8 ng·h/mL
same,AUC(0-t),[1],55.5 ng·h/mL
same,Cmax,[1],21.9 ng/mL
same,Any >=Grade 3 TRAEs Related to Midazolam,[2]; [3],0 (0.0) N (%)
same,Any TRAEs Related to Midazolam,[2]; [3],0 (0.0) N (%)
same,Any >=Grade 3 TRAEs Related to Midazolam,[2]; [4],0 (0.0) N (%)
same,Any TRAEs Related to Midazolam,[2]; [4],0 (0.0) N (%)
same,Any >=Grade 3 TRAEs Related to Midazolam,[2]; [5],0 (0.0) N (%)
same,Any TRAEs Related to Midazolam,[2]; [5],0 (0.0) N (%)
